Test results reported in ChEMBL document CHEMBL1201862, “PubChem BioAssay data set” (2004).
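All cell lines were grown in 96-well plates and treated with compound for 48 hours. Here, GI50 denotes the concentration required for 50% inhibition of growth.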 Calls of active or inactive are those of the source. No stated cut-off is given here; in the data, active = GI50 up to about 1.1 µM and inactive = higher.

Assays:
Experiment in all cases: inhibition of tumour cell growth, NCI panel, 48 h
[1] = tested on: DLD-1
[2] = tested on: DMS-114
[3] = tested on: HL-60
[4] = tested on: NCI-H522
[5] = tested on: OVCAR-3
[6] = tested on: SF-295
[7] = tested on: SK-MEL-2
[8] = tested on: SN12C
[9] = tested on: SNB-78
[10] = tested on: UACC-257
[11] = tested on: KM-20L2
[12] = tested on: LOX IMVI
[13] = tested on: LXFL 529
[14] = tested on: SNB-75
[15] = tested on: BT-549
[16] = tested on: DU-145
[17] = tested on: MDA-MB-231
[18] = tested on: MDA-MB-435
[19] = tested on: NCI/ADR-RES
[20] = tested on: T47D

Structure (SMILES)	GI50 [1]	GI50 [2]	GI50 [3]	GI50 [4]	GI50 [5]	GI50 [6]	GI50 [7]	GI50 [8]	GI50 [9]	GI50 [10]	GI50 [11]	GI50 [12]	GI50 [13]	GI50 [14]	GI50 [15]	GI50 [16]	GI50 [17]	GI50 [18]	GI50 [19]	GI50 [20]
O=C1c2ccccc2C(=O)c2[nH]cnc21	27 µM (inactive)	31.5 µM (inactive)	23.6 µM (inactive)	34 µM (inactive)	21.5 µM (inactive)	34.3 µM (inactive)	> 100 µM (inactive)	95.7 µM (inactive)	41.3 µM (inactive)	23 µM (inactive)	–	–	–	–	–	–	–	–	–	–
c1cc2nnsc2s1	60.4 µM (inactive)	–	> 100 µM (inactive)	> 100 µM (inactive)	–	> 100 µM (inactive)	> 100 µM (inactive)	> 100 µM (inactive)	> 100 µM (inactive)	> 100 µM (inactive)	> 100 µM (inactive)	60 µM (inactive)	90.8 µM (inactive)	> 100 µM (inactive)	–	–	–	–	–	–
CC12C/C(=C\c3ccccc3)C(=O)C3C1CCCC32	79.3 µM (inactive)	41.6 µM (inactive)	21.5 µM (inactive)	26.5 µM (inactive)	74.6 µM (inactive)	> 100 µM (inactive)	> 100 µM (inactive)	> 100 µM (inactive)	–	53 µM (inactive)	63.1 µM (inactive)	72.8 µM (inactive)	56.9 µM (inactive)	92.9 µM (inactive)	–	–	–	–	–	–
COC(=O)c1ccc2c(c1)S/C(=C/c1ccc3ccc4cccc5ccc1c3c45)S2	–	–	20.7 µM (inactive)	21 µM (inactive)	23.2 µM (inactive)	40.8 µM (inactive)	> 100 µM (inactive)	> 100 µM (inactive)	–	> 100 µM (inactive)	–	> 100 µM (inactive)	–	17.3 µM (inactive)	35.8 µM (inactive)	> 100 µM (inactive)	> 100 µM (inactive)	26.6 µM (inactive)	23.7 µM (inactive)	> 100 µM (inactive)
CCOC(=O)c1ccc(/N=N/c2cc(C(=O)OCC)ccc2O)cc1	> 100 µM (inactive)	> 100 µM (inactive)	> 100 µM (inactive)	41.9 µM (inactive)	–	–	–	> 100 µM (inactive)	–	–	> 100 µM (inactive)	> 100 µM (inactive)	> 100 µM (inactive)	–	–	–	–	–	–	–
CC(=O)OC1c2ccccc2CCCCCCC12OCCO2 (centres undefined)	> 100 µM (inactive)	61.5 µM (inactive)	44.3 µM (inactive)	50.9 µM (inactive)	33 µM (inactive)	> 100 µM (inactive)	> 100 µM (inactive)	> 100 µM (inactive)	> 100 µM (inactive)	55.5 µM (inactive)	> 100 µM (inactive)	> 100 µM (inactive)	–	> 100 µM (inactive)	–	–	–	–	–	–
CCOC(=O)N1CCN(Cc2cc(=O)n3ccc(C)cc3n2)CC1	–	–	> 100 µM (inactive)	> 100 µM (inactive)	> 100 µM (inactive)	> 100 µM (inactive)	> 100 µM (inactive)	> 100 µM (inactive)	–	> 100 µM (inactive)	–	> 100 µM (inactive)	–	> 100 µM (inactive)	> 100 µM (inactive)	> 100 µM (inactive)	> 100 µM (inactive)	> 100 µM (inactive)	> 100 µM (inactive)	> 100 µM (inactive)
COc1ncc(C=C(C#N)C#N)c(OC)n1	–	–	16.7 µM (inactive)	16.7 µM (inactive)	57.9 µM (inactive)	85.5 µM (inactive)	32.3 µM (inactive)	26.8 µM (inactive)	–	22.1 µM (inactive)	–	30.2 µM (inactive)	–	> 100 µM (inactive)	33.7 µM (inactive)	52.5 µM (inactive)	41.5 µM (inactive)	26 µM (inactive)	22.6 µM (inactive)	> 100 µM (inactive)
CC1CCc2c(sc3ncnc(N/N=C/c4ccc(Cl)c(Cl)c4)c23)C1 (centres undefined)	9.33 µM (inactive)	3.79 µM (inactive)	22.2 µM (inactive)	5.45 µM (inactive)	17 µM (inactive)	11.4 µM (inactive)	10.3 µM (inactive)	19.4 µM (inactive)	–	31 µM (inactive)	4.69 µM (inactive)	11.9 µM (inactive)	–	15.1 µM (inactive)	–	–	–	–	–	–
O=C(O)c1cccc(/N=N/c2c(S(=O)(=O)O)ccc3c2C(=O)c2ccccc2C3=O)c1O	–	–	> 100 µM (inactive)	> 100 µM (inactive)	> 100 µM (inactive)	> 100 µM (inactive)	> 100 µM (inactive)	> 100 µM (inactive)	–	> 100 µM (inactive)	–	> 100 µM (inactive)	–	> 100 µM (inactive)	> 100 µM (inactive)	> 100 µM (inactive)	> 100 µM (inactive)	> 100 µM (inactive)	> 100 µM (inactive)	> 100 µM (inactive)
CCOC(=O)CSc1nc(N)c2c(-c3ccccc3)c3c(nc2n1)CCCC3	–	–	> 100 µM (inactive)	> 100 µM (inactive)	> 100 µM (inactive)	> 100 µM (inactive)	> 100 µM (inactive)	> 100 µM (inactive)	–	> 100 µM (inactive)	–	> 100 µM (inactive)	–	98.6 µM (inactive)	> 100 µM (inactive)	> 100 µM (inactive)	> 100 µM (inactive)	> 100 µM (inactive)	> 100 µM (inactive)	> 100 µM (inactive)
CCCn1c(SCCSc2c3ccccc3c(-c3nc(F)nc(F)n3)n2CCC)c2ccccc2c1-c1nc(F)nc(F)n1	20.5 µM (inactive)	–	> 100 µM (inactive)	> 100 µM (inactive)	> 100 µM (inactive)	> 100 µM (inactive)	> 100 µM (inactive)	> 100 µM (inactive)	> 100 µM (inactive)	> 100 µM (inactive)	91.6 µM (inactive)	–	88.9 µM (inactive)	> 100 µM (inactive)	–	–	–	–	–	–
CN1CCCN2CCN(C)CCN(CC1)CC2	–	–	> 100 µM (inactive)	> 100 µM (inactive)	> 100 µM (inactive)	> 100 µM (inactive)	> 100 µM (inactive)	> 100 µM (inactive)	–	> 100 µM (inactive)	–	> 100 µM (inactive)	–	> 100 µM (inactive)	> 100 µM (inactive)	> 100 µM (inactive)	> 100 µM (inactive)	> 100 µM (inactive)	> 100 µM (inactive)	> 100 µM (inactive)
O=C(C=C1SCCS1)/C=C\c1ccc(Cl)cc1	> 100 µM (inactive)	–	56.9 µM (inactive)	> 100 µM (inactive)	> 100 µM (inactive)	> 100 µM (inactive)	> 100 µM (inactive)	> 100 µM (inactive)	> 100 µM (inactive)	80.2 µM (inactive)	–	53.8 µM (inactive)	69.7 µM (inactive)	> 100 µM (inactive)	–	–	–	–	–	–
O=[N+]([O-])C1=Cc2c(O)ccc(O)c2C2c3ccccc3NC12 (centres undefined)	–	–	5.85 µM (inactive)	2.45 µM (inactive)	5.81 µM (inactive)	13.2 µM (inactive)	16.9 µM (inactive)	16.7 µM (inactive)	–	13.9 µM (inactive)	–	14 µM (inactive)	–	22.4 µM (inactive)	12.3 µM (inactive)	24.7 µM (inactive)	13.6 µM (inactive)	14.7 µM (inactive)	7.43 µM (inactive)	7.03 µM (inactive)
CCOC(=O)C(C(N)=O)C1=Nc2cc([N+](=O)[O-])ccc2N/C1=C\C(=O)c1ccccc1 (centres undefined)	–	–	8.93 µM (inactive)	14.9 µM (inactive)	10.3 µM (inactive)	16.7 µM (inactive)	15.3 µM (inactive)	23.1 µM (inactive)	–	19.8 µM (inactive)	–	14.1 µM (inactive)	–	17.7 µM (inactive)	21.7 µM (inactive)	13.5 µM (inactive)	13.3 µM (inactive)	15.8 µM (inactive)	16.8 µM (inactive)	26 µM (inactive)
C1=C2C3=[N+](CCCC3)CC2Cc2sccc21 (centres undefined)	–	–	> 100 µM (inactive)	53 µM (inactive)	64.4 µM (inactive)	66.5 µM (inactive)	> 100 µM (inactive)	92.7 µM (inactive)	–	33.3 µM (inactive)	–	> 100 µM (inactive)	–	> 100 µM (inactive)	82.6 µM (inactive)	> 100 µM (inactive)	> 100 µM (inactive)	> 100 µM (inactive)	> 100 µM (inactive)	74.8 µM (inactive)
Cc1cn(C2CC(O)C(COP(=O)(O)OC3CC(n4c[n+]([BH2-]C#N)c5c(=O)[nH]c(N)nc54)OC3CO)O2)c(=O)[nH]c1=O (centres undefined)	–	–	> 100 µM (inactive)	> 100 µM (inactive)	> 100 µM (inactive)	> 100 µM (inactive)	> 100 µM (inactive)	> 100 µM (inactive)	–	> 100 µM (inactive)	–	> 100 µM (inactive)	–	> 100 µM (inactive)	> 100 µM (inactive)	> 100 µM (inactive)	> 100 µM (inactive)	> 100 µM (inactive)	> 100 µM (inactive)	> 100 µM (inactive)
COc1cc(C2c3cc4c(cc3[C@@H](NCCN3CCCCC3)C3COC(=O)[C@H]23)OCO4)cc(OC)c1O (some centres undefined)	1.6 µM (inactive)	–	0.0322 µM (active)	–	1.04 µM (active)	0.0986 µM (active)	2.06 µM (inactive)	2.04 µM (inactive)	2.7 µM (inactive)	2.93 µM (inactive)	1.53 µM (inactive)	0.204 µM (active)	2 µM (inactive)	0.256 µM (active)	–	–	–	–	–	–
